Assay results published in the NIST ThermoML archive (doi:10.1016/j.fluid.2017.01.019).

Assay: xn = mol fraction of the nth substance listed
Conditions: 100 kPa, Liquid; for mass density: Vibrating tube method; for viscosity: Falling or rolling sphere viscometry; for speed of sound: Frequency=3 MHz, Sing-around technique in a fixed-path interferometer

CCOS(=O)(=O)[O-].CCn1cc[n+](C)c1 [1-ethyl-3-methylimidazolium ethyl sulfate] + CCCCO
Conditions	mass density [kg/m3]	speed of sound [m/s]	viscosity [mPa·s]
289.15 K, x1 = 0.1071	894.433	–	–
289.15 K, x1 = 0.1982	955.118	–	–
289.15 K, x1 = 0.3069	1015.6	–	–
289.15 K, x1 = 0.3985	1058.77	–	–
289.15 K, x1 = 0.5048	1101.82	–	–
289.15 K, x1 = 0.603	1136.02	–	–
289.15 K, x1 = 0.7158	1169.99	–	–
289.15 K, x1 = 0.7951	1191.1	–	–
289.15 K, x1 = 0.9185	1219.88	–	–
289.15 K, x1 = 1	1236.33	–	–
298.15 K, x1 = 0.1071	–	1289.1	4.24
298.15 K, x1 = 0.1982	–	1334.4	7.8
298.15 K, x1 = 0.3069	–	1385.6	10.83
298.15 K, x1 = 0.3985	–	1430.2	14.09
298.15 K, x1 = 0.5048	–	1480.4	19.44
298.15 K, x1 = 0.603	–	1523.6	26.62
298.15 K, x1 = 0.7158	–	1571.7	38.4
298.15 K, x1 = 0.7951	–	1603.7	49.51
298.15 K, x1 = 0.9185	–	1649.7	72.34
298.15 K, x1 = 1	–	1682.3	96.21
303.15 K, x1 = 0.1071	890.751	1273.7	3.75
303.15 K, x1 = 0.1982	951.498	1319.9	6.51
303.15 K, x1 = 0.3069	1012.01	1372	9.15
303.15 K, x1 = 0.3985	1055.33	1417	11.98
303.15 K, x1 = 0.5048	1098.4	1467.3	16.51
303.15 K, x1 = 0.603	1132.65	1510.8	22.37
303.15 K, x1 = 0.7158	1166.67	1559.1	31.74
303.15 K, x1 = 0.7951	1187.78	1591.2	40.39
303.15 K, x1 = 0.9185	1216.56	1637.3	57.89
303.15 K, x1 = 1	1232.93	1670	75.89
308.15 K, x1 = 0.1071	887.005	1258.4	3.34
308.15 K, x1 = 0.1982	947.88	1305.4	5.54
308.15 K, x1 = 0.3069	1008.14	1358.2	7.92
308.15 K, x1 = 0.3985	1051.76	1403.8	10.46
308.15 K, x1 = 0.5048	1094.94	1454.7	14.4
308.15 K, x1 = 0.603	1129.23	1498.4	19.31
308.15 K, x1 = 0.7158	1163.39	1546.8	26.88
308.15 K, x1 = 0.7951	1184.46	1578.9	33.7
308.15 K, x1 = 0.9185	1213.19	1625.2	47.2
308.15 K, x1 = 1	1229.57	1657.9	60.73
313.15 K, x1 = 0.1071	883.165	1243.2	2.99
313.15 K, x1 = 0.1982	944.157	1290.7	4.82
313.15 K, x1 = 0.3069	1004.86	1344.1	6.95
313.15 K, x1 = 0.3985	1048.25	1390.4	9.21
313.15 K, x1 = 0.5048	1091.49	1441.8	12.62
313.15 K, x1 = 0.603	1125.39	1485.8	16.74
313.15 K, x1 = 0.7158	1160.05	1534.5	22.92
313.15 K, x1 = 0.7951	1181.13	1566.7	28.36
313.15 K, x1 = 0.9185	1209.91	1613.1	38.93
313.15 K, x1 = 1	1226.21	1645.9	49.38
318.15 K, x1 = 0.1071	879.331	1228	2.69
318.15 K, x1 = 0.1982	940.543	1276.5	4.25
318.15 K, x1 = 0.3069	1001.31	1330.5	6.16
318.15 K, x1 = 0.3985	1044.72	1377.6	8.16
318.15 K, x1 = 0.5048	1088.01	1429.8	11.12
318.15 K, x1 = 0.603	1122.45	1473.7	14.62
318.15 K, x1 = 0.7158	1156.71	1522.6	19.75
318.15 K, x1 = 0.7951	1177.81	1554.8	24.19
318.15 K, x1 = 0.9185	1206.65	1601.2	32.66
318.15 K, x1 = 1	1222.87	1634.1	40.93
323.15 K, x1 = 0.1071	875.482	1213	2.43
323.15 K, x1 = 0.1982	936.794	1262.2	3.69
323.15 K, x1 = 0.3069	997.633	1317	5.43
323.15 K, x1 = 0.3985	1041.07	1364.8	7.28
323.15 K, x1 = 0.5048	1084.47	1417.4	9.93
323.15 K, x1 = 0.603	1118.96	1461.5	12.97
323.15 K, x1 = 0.7158	1153.24	1510.6	17.27
323.15 K, x1 = 0.7951	1174.37	1543	20.87
323.15 K, x1 = 0.9185	1203.18	1589.4	27.56
323.15 K, x1 = 1	1219.54	1622.3	33.82
